Assay results from patent US5723115A, “Inhibition of adipose tissue development and obesity” (W. Alton Jones Cell Science Center, Inc., priority 1993, dated 1998).

Legend:
[1] = tested on: 1246 cells; assay: Differentiation of 1246 cells (G3PDH enzymatic activity); type: cell-based
Method: FIG. 11 is a graph showing the dose-related inhibition of adipocyte differentiation by prostaglandin F2α (PGF^2α). 1246 cells were incubated with the indicated dose of pGF^2α
FIG. 12 is a graph showing that indomethacin reverses the EGF-induced inhibition of adipocyte differentiation. 1246 cells were incubated in medium ("no"=control, 100% of activity) or in the presence of indicated concentrations of EGF, indomethacin ("Indo") or a mixture of EGF (E) at the indicated concentration and indomethacin (I) at 3 μM. As above, differentiation was assessed as G3PDH enzymatic activity.
Stimulation of PLA2 will result in the activation of the cyclooxygenase pathway, leading to generation of various prostaglandins, as is well-known in the art. One metabolite of this pathway, prostaglandin F2α (PGF2α), was tested for its ability to act as a mediator of the EGF effect and inhibit adipocyte differentiation.
If EGF inhibits adipocyte differentiation via the activation of PLA2 and cyclooxygenase, it would be expected that an inhibitor of cyclooxygenase would counteract the EGF effect.

[2] = molecular target: T1, EGF receptors (Rattus norvegicus, UniProt G3V6K6); assay: 125I-EGF binding to EGF receptors on adipocyte precursors; details: control and treated rats, with or without acid wash
T1 construct: adipocyte precursors have specific EGF receptors on their surface; endogenous in cells; host or cells: primary adipocyte precursors from inguinal fat pads of neonatal NBR rats
From the text: The properties of adipocytes from EGF-treated rats, namely, a decreased ability to differentiate and an increased sensitivity to EGF in vitro, could not be explained by occupancy of EGF receptors at the time of cell isolation.

[3] = tested on: organs including inguinal fat pads; details: rat, in vivo
From the text: One question raised by the above results is whether the inhibition of adipose tissue development by EGF is due to a direct action of EGF on adipose tissue or by indirect action via another growth factor or hormone. Several observations point to direct action of EGF: EGF inhibits the differentiation of primary culture of adipocyte precursors freshly isolated from inguinal fat pads (10); adipocyte precursors have specific EGF receptors on their surface (10).

[4] = tested on: adipocyte precursors isolated from inguinal fat pads; details: earlier study; cited from earlier work
[5] = tested on: obese yellow mice; assay: Neonatal EGF treatment of obese yellow mice, body weight development over 43 days; type: in vivo, mouse; details: 1 μg/g body weight, day 1 to day 10 of life
Method: FIG. 7 is a graph showing the effect of EGF treatment on development of body weight in obese yellow mice over 43 days. Mice were injected beginning at 24 hours after birth with EGF (1 μg/g body weight) (filled diamonds, marked 1Y) or with vehicle (PBS) (+, marked OY) for 9 days. Weights are shown beginning at postnatal day 13

[6] = tested on: phospholipase A2 (PLA2); details: EGF 10 ng/ml
Method: Experiments were performed to examine whether stimulation of adipocyte precursors, either primary cultures or the 1246 cell line, activated the enzyme phospholipase A2 (PLA2) which results in the activation of cyclooxygenase and the generation of prostaglandins.

[7] = tested on: adipocyte precursors isolated from inguinal fat pads; assay: Inhibition by EGF of differentiation of primary culture adipocyte precursors (G3PDH activity); type: cell-based, rat
Method: (§1) Inguinal fat pads, well developed in 10 day-old animals, can be easily dissected. Inguinal fat pads were excised, weighed and pooled. They were digested with collagenase using the method of Bjorntorp et al. (23), and duplicate aliquots were kept for measuring triglyceride content as described below. Digestion conditions minimized breakage of adipocytes during the incubation period (23). After digestion, the cell suspension was filtered through a 253 μm nylon mesh filter. Adipocytes were easily recovered by two successive flotations of the cell suspension. The infranatant containing the adipocyte precursors was removed with a plastic pipet and further filtered through an 80 μm nylon mesh. The adipocytes remained in the tube after removal of the infranatant. They were gently resuspended in culture medium and counted in a hemocytometer. The filtrate containing the adipocyte precursors was centrifuged twice at 200×g for 5 minutes. Adipocyte precursor pellets were resuspended in 4F medium. The cells were subsequently counted in a hemocytometer and inoculated in 35 mm dishes in 4F medium as described previously (24). Such cultures were used to evaluate the cells' ability to differentiate and to measure their responsiveness to EGF.
(§2) The defined medium designated 4F consists of a 1:1 mixture of Dulbecco's modified Eagle's medium (DME) and Ham's F12 medium (DME-F12 medium) containing 15 mM HEPES, pH 7.4, 1.2 mg/ml sodium bicarbonate, 50 μg/ml gentamicin, and the following mixture of proteins: fibronectin (2.5 μg/ml), insulin (10 μg/ml), transferrin (10 μg/ml) and fibroblast growth factor (10 ng/ml). The medium was originally developed to support the differentiation of the adipogenic cell line, 1246 (25). When cultivated in this medium, optimal differentiation of adipocyte precursors was achieved within 8 days of culture (24).
Studies from the present inventor's laboratory (10) have shown that the differentiation in vitro of adipocyte precursors cultivated in 4F medium was inhibited in a dose-dependent manner by EGF added to the medium. […]

[8] = tested on: newborn NBR rats (inguinal fat pads); assay: Daily sc EGF injection of newborn NBR rats for 10 days: eyelid response, body, organ and inguinal fat pad measures; type: in vivo, rat
Method: New Zealand Brown (NBR) rats (Trudeau Institute, Saranac Lake, N.Y.) were mated in the animal facilities of the W. Alton Jones Cell Science Center. One day after delivery, litter size was adjusted to 6-8 pups/female according to the size and age of the females. No more than 8 pups/female were used. Mothers were fed ad libitum a regular laboratory diet and were allowed free access to water. Animals were housed in rooms in which the air flow, temperature and lights were controlled (12 h of light between 6 AM to 6 PM).
Mouse "receptor grade" EGF (Biomedical Technologies, Inc.) was used in all experiments. […] Beginning at 24 hrs after birth, rats were injected subcutaneously (sc) daily for 10 days with EGF dissolved in physiological saline at doses varying between 0.1 and 1.0 μg/g of body weight. The pups were weighed prior to each injection. Control animals were similarly handled and weighed, and were injected sc with an equivalent volume of physiological saline.
as §1
For determination of triglyceride content, lipids were extracted from duplicate aliquots of the fat pad cell suspensions obtained as above pads, using the method of Bligh et al. (26). Triglycerides were separated by thin-layer chromatography on silica gel plates using hexane/[…]/formic acid (60:40:1) as a solvent system. Spots containing triglycerides were scraped, and the triglyceride content was determined by the method of Marsh et al. (27). This method consists of a quantitative charring of the triglycerides at 200° C. for 15 min in the presence of concentrated sulfuric acid. Absorbance of the samples at 350 nm was measured in a spectrophotometer using known amounts of triolein as standards.
Ten separate in vivo experiments were performed with neonatal NBR rats. Over the 10 day period, pups injected with saline alone or with EGF were weighed daily. The efficiency of EGF injected was assessed by monitoring the "eyelid response," by determining the postnatal day on which eyelid opening occurs, which is related to the EGF dose (28). Eyelid opening occurred at day 8 in rats injected with EGF at a concentration of 1 μg/g body weight, 24 hrs later in rats treated with 0.6 μg EGF/g body weight, and 48 hrs later in rats injected with 0.3 μg EGF/g body weight.

[9] = tested on: adipocyte precursors isolated from inguinal fat pads; assay: Differentiation capacity in 4F medium of adipocyte precursors isolated from EGF-treated rats (G3PDH specific activity); type: cell-based, rat
Method: as §1, §2
It was shown previously (24) that adipocyte precursors freshly isolated from inguinal fat pads of 48 hr-old rats proliferated and differentiated in 4F medium (see above). […]

[10] = tested on: newborn rats; assay: Neonatal EGF treatment of rats, body weight development over 28 days; type: in vivo, rat; details: 0.6 μg/g body weight, from 24 hours after birth, 9 days
Method: FIG. 6 is a graph showing the effect of EGF treatment of newborn rats on development of body weight over 28 days. Rats were injected beginning at 24 hours after birth with EGF (0.6 μg/g body weight) (filled squares) or with vehicle (PBS) (+) for 9 days.

[11] = tested on: adipocyte precursors; assay: Effect of EGF on proliferation of adipocyte precursors in 4F medium (cell count); type: cell-based, rat
Method: FIG. 5 is a graph showing the effect of EGF on proliferation of adipocyte precursors. Controls and EGF-treated animals as in FIG. 4. After 8 days of culture, cells were detached with trypsin and counted on a Coulter counter. Values represent means±standard errors.
For this purpose, adipocyte precursors isolated from inguinal fat pads of control or EGF-injected animals (1 μg/g body weight) were cultivated in 4F medium alone or in the presence of increasing concentrations of EGF. […] The ED50 for EGF on cells from EGF-treated animals was calculated to be 0.5 ng/ml, compared to an ED50 of 0.9 ng/ml for EGF acting on control cells.
Marked stimulation of proliferation (in cells from controls or EGF-treated rats) was observed only at EGF concentrations above 1 ng/ml.

[12] = EGF-treated compared to control animals

With COc1ccc2c(c1)c(CC(=O)O)c(C)n2C(=O)c1ccc(Cl)cc1 [indomethacin] the “effect on EGF inhibition of adipocyte differentiation” value ([1]; indomethacin 3 μM with EGF at 2 or 10 ng/ml) was “completely reversed”.
For “^125 I-EGF: radiolabeled EGF used in binding studies”, the “EGF bound to EGF receptors on adipocyte precursors” value [2] was “about 4 pg EGF bound per 10^5 cells” and the “binding to organs after sc injection” value [3] was “specifically bound to several organs including inguinal fat pads”.
In the case of prostaglandin F2α [PGF2α], the “differentiation of 1246 cells” value ([1]; indicated doses (FIG. 11)) is reported as “concentration-dependent inhibition”.
For transforming growth factor.α [TGFα], the “differentiation of primary culture adipocyte precursors from inguinal fat pad of newborn rats” value [4] is listed as “potent inhibitor”.
In the case of Epidermal growth factor [EGF], the “body weight over at least 43 days” value [5] is reported as “prolonged and profound diminution in body weight”, the PLA2 activity [6] is reported as “increase in PLA2 activity” and the “differentiation (G3PDH activity)” value ([7]; EGF 10 ng/ml, primary cultures) is reported as “inhibition of differentiation”. The “ED50 for inhibition of differentiation (G3PDH enzyme activity)” value ([7]; cells from EGF-treated animals (1 μg/g body weight)) was 0.5 ng/mL, the “ED50 for inhibition of differentiation (G3PDH enzyme activity)” value ([7]; control cells) was 0.9 ng/mL and the “eyelid opening at termination, day 10” value ([8]; 0.1 μg EGF/g body weight sc daily) was “eyelid opening had not yet occurred”. The “eyelid opening, time later than at the 1 μg/g dose” value ([8]; 0.3 μg EGF/g body weight sc daily) was 48 h, the “eyelid opening, time later than at the 1 μg/g dose” value ([8]; 0.6 μg EGF/g body weight sc daily) was 24 h and the “fat pad triglyceride content, lower than control” value ([8]; 1 μg EGF/g body weight) was 80%. The “number of mature adipocytes in the fat pad, lower than in control animals” value ([8]; 1 μg EGF/g body weight) was 4 fold, the “body weight, less than in control animals” value ([8]; 1 μg EGF/g body weight, 10 days) was 40% and the “inguinal fat pad weight, lower than in controls” value ([8]; 1 μg of EGF/g body weight, 10 days) was 50%. The “number of adipocyte precursors per fat pad, higher than in control animals” value ([8]; 1 μg/g body weight) was 1.8 fold, the “postnatal day on which eyelid opening occurs” value ([8]; 1 μg/g body weight sc daily) was 8 days and the intestinal weight ([8]; EGF treatment) was “increased”. For the same compound, the kidney weight ([8]; EGF treatment) was “some decrease”, the liver weight ([8]; EGF treatment) was “unchanged” and the “total number of cells (precursors plus adipocytes) in fat pads, lower than controls” value ([8]; EGF-treated animals) was 40%. For the same compound, the hair growth [8, 12] was “delay in hair growth”, the incisor eruption [8, 12] was “acceleration of incisor eruption” and the “lowest EGF dose at which a significant delay of adipose tissue development was observed” value ([8]; daily sc injection) was 0.3 μg/g body weight. For the same compound, the “differentiation of primary culture adipocyte precursors from inguinal fat pad of newborn rats” value [4] was “potent inhibitor”, the “G3PDH specific activity corresponding to 100% activity (FIG. 4)” value ([9]; cells from EGF-treated rats) was 337±53 milliunits/mg protein and the “G3PDH specific activity, lower than control” value ([9]; cells from animals treated with 1 μg/g, day 8 of culture) was 60%. The G3PDH specific activity ([9]; cells from animals treated with EGF 1 μg/g, 5 separate experiments) was 337±53 mU/mg protein, the “body weight over a 28 day period” value [10] was “significant reduction in body weight” and the “effect on cell proliferation of the EGF concentration which inhibited differentiation by 50%” value [11] was “moderate or no effects”. For the same compound, the “proliferation of adipocyte precursors” value ([11]; EGF added to 4F medium, cells from control and EGF-treated rats, 8 days) was “stimulated proliferation” and the “EGF concentration giving marked stimulation of proliferation” value ([11]; cells from controls or EGF-treated rats) was “above 1 ng/ml”.
